# Experimental data taken from patent publication US20180008593A1 (Purdue Pharma L.P., priority 2005, published 2018).
# Columns and labels:
# [1] = test system: experimental human pain model, healthy volunteers; assay: Pain-related evoked potentials (EEG) after CO2 stimulation of the nasal mucosa, Example 4; type: in vivo
# Description: This was a single site, single dose, double blind, placebo-controlled, 5-treatment, 5-period, randomized, balanced crossover study in healthy adult male and female subjects. […] Subjects were allocated each of the 5 treatments described in the synopsis according to a random allocation schedule (RAS). There was a 7-day washout period
# Analgesic effects were assessed by means of an experimental human pain model based on the chemosomatosensory pain-related cortical potentials (CSSEPs) and pain-ratings after specific phasic nociceptive stimulation of the nasal mucosa with gaseous CO2. In addition, intensity estimates of tonic pain produced by stimulation of the nasal mucosa with dry air at controlled flow and temperature were employed.
# Within the present pain model, the following were used as indicators of analgesia: • post-treatment decrease in pain-ratings and/or • post-treatment decrease in amplitudes of pain-related evoked potentials and/or • post-treatment increase in latencies of pain-related evoked potentials, relative to the pretreatment values.
# 1. Base-to-peak amplitudes P1, N1 and P2, peak-to-peak amplitudes P1 N1 and N1P2 of pain related evoked potentials 2. Latencies P1, N1 and P2 of pain-related evoked potentials 3. Intensity estimates of phasic (C02-) pain 4. Intensity estimates of tonic pain
# In the first 20 minutes, 40 phasic CO2-stimuli were applied (20 stimuli at a concentration of 70% and 20 at a concentration of 60%, interstimulus interval 30 s). In response to these stimuli, pain-related potentials and subjective intensity estimates were recorded.
# CO2-stimuli were mixed in a constantly flowing air stream with controlled temperature (36.5° C.) and humidity (80% relative humidity) presented to the left nostril (stimulus duration 200 ms, interstimulus interval 30 s). […] During intervals between phasic stimuli subjects performed a simple tracking task on a video screen. Using a joystick, they had to keep a small square inside a larger one that randomly moved around.
# The EEG was recorded from 5 positions of the international 10/20 system (Cz, C3, C4, Fz and Pz; see FIG. 40) referenced to linked earlobes (A1+A2). Possible eye blink artifacts were monitored from an additional site (Fp2/A1+A2). Stimulus linked EEG segments of 2040 ms duration were sampled with a frequency of 250 Hz (band pass 0.2-30 Hz, pre-stimulus period 512 ms). The recorded analog EEG segments were then converted to digital and filed electronically. The average value for each recording position was separately calculated, discarding all eye blink contaminated records. By this procedure pain-related evoked potentials were obtained in response to the painful CO2 stimuli. Base to peak amplitudes P1, N1 and P2, the peak to peak amplitudes P1 N1 and N1 P2 and the latencies of P1, […] and P2 were measured. Wherever the time of measurement was used in the data analysis, the mid-time of a session was taken. FIG. 40 presents the components of the pain-related evoked potentials.
# [2] = test system: patients with severe chronic pain; assay: Incidence and duration of diarrhea and discontinuations due to diarrhea, Example 1; settings: naloxone 0 mg
# male Sprague-Dawley rats = assay: 51° C. warm-water tail withdrawal test, i.v. oxycodone in opioid naive rats, Example 5
# [3] = test system: oxycodone-pump and vehicle-pump implanted rats; assay: Oxycodone tolerance: tail withdrawal dose response in pump-implanted rats, Example 5; type: in vivo, rat
# Description: Animals were randomized and acclimated for one week as described in Section 3.1. Vehicle control pumps contained sterile filtered isotonic saline. Alzet 2ML 1 osmotic mini pumps were loaded with oxycodone solution as described in “Alzet Osmotic Minipumps: Technical Information Manual” from DURECT Corp., Cupertino, Calif. The loaded pumps were primed by placing them in sterile isotonic saline at 37° […] for 3-h before implanting them in the rats. The rats were briefly anesthetized with isoflurane USP (Henry Schein, Inc. Melville, N.Y., U.S.A.) for implantation of 2ML 1 osmotic minipumps that deliver at a rate […]. After induction of anesthesia (as noted by the absence of the righting reflex and foot pinch response). Sterile scissors were used to make a 1.5 cm incision that was expanded under the skin with hemostats in a caudal direction to open the subcutaneous space for the pump. A sterile 2ML 1 pump was then inserted under the skin and moved to the dorsum. The rats were returned to their home cages and monitored until they completely recovered from anesthesia. Pump delivery began at 4-h (DU REGT Corp.) allowing the rats 1-h to recover from the anesthesia. Therefore, time zero began 1-h after implantation of the pumps. The rats were monitored daily for signs of distress, drug toxicity, or problems with the surgical site.
# If the value was below 50% then the predicted level of tolerance was greater than 10-fold. The infusion dose that elicited approximately a 50% MPE with the challenge was selected as the 10-fold model of tolerance.
# After this, the individual groups (8/group) were challenged with increasing doses of oxycodone for construction of a dose-response curve for calculation of the ED80 value. Potency-ratio determinations were made between the oxycodone-pump and vehicle-pump groups.
# [4] = 0.3 mg/kg oxycodone free-base i.v.
compound,measurement,setting,value
"COc1ccc2c3c1O[C@H]1C(=O)CC[C@@]4(O)[C@@H](C2)N(C)CC[C@]314 [Oxycodone, oxycodone]",Magnitude of reduction of amplitude P1N1 at C4 compared to baseline,"[1]; 60% CO2, 20 mg oxycodone",35.3%
same,Amplitude P1N1 of pain-related evoked potentials,"[1]; 60% CO2, recording position C4",significant compared to placebo
same,Latency P1 of pain-related evoked potentials,"[1]; 60% CO2, recording position C4",significant compared to placebo
same,Latency P1 of pain-related evoked potentials,"[1]; 60% CO2, recording position Pz",significant compared to placebo
same,Latency P1 of pain-related evoked potentials,"[1]; 70% CO2, recording position C3",significant compared to placebo
same,Latency P1 of pain-related evoked potentials,"[1]; 70% CO2, recording position Cz",significant compared to placebo
same,Latency P2 of pain-related evoked potentials,"[1]; 70% CO2, recording position Cz",significant compared to placebo
same,Latency P1 of pain-related evoked potentials,"[1]; 70% CO2, recording position Fz",significant compared to placebo
same,Latency P1 of pain-related evoked potentials,"[1]; 70% CO2, recording position Pz",significant compared to placebo
same,Latency P2 of pain-related evoked potentials,"[1]; 70% CO2, recording position Pz",significant compared to placebo
same,"Discontinuations due to Diarrhea, n/N",[2]; daily oxycodone 40 mg,0/17
same,Incidence of Discontinuations due to Diarrhea,[2]; daily oxycodone 40 mg,(0.0%)
same,"Discontinuations due to Diarrhea, n/N",[2]; daily oxycodone 60 mg,0/17
same,Incidence of Discontinuations due to Diarrhea,[2]; daily oxycodone 60 mg,(0.0%)
same,"Discontinuations due to Diarrhea, n/N",[2]; daily oxycodone 80 mg,0/16
same,Incidence of Discontinuations due to Diarrhea,[2]; daily oxycodone 80 mg,(0.0%)
same,First test point at which antinociception was present,male Sprague-Dawley rats; [4],2.5 min
same,"Obvious signs (sedation, motor control, respiration, toxicity)",male Sprague-Dawley rats; [4],no obvious signs were noted
same,Time antinociception stayed significantly above baseline latencies,male Sprague-Dawley rats; [4],40 min
same,Peak time of antinociception,"male Sprague-Dawley rats; 0.3 mg/kg oxycodone free-base i.v., 51° C. tail withdrawal",10 min
same,ED80 value (antinociception),"male Sprague-Dawley rats; oxycodone free-base i.v., tested at 10-min",0.41 mg/kg
same,Rightward shift in the oxycodone dose-response curve (tolerance),[3]; 7-day oxycodone infusion […] vs vehicle pump,8.5 fold
same,ED50,"[3]; Rattus norvegicus, iv, i.v. oxycodone, vehicle-pump implanted rats, read-out: ED50 value (antinociception)",0.32 mg/kg
same,% MPE on challenge with […] oxycodone,[3]; after s.c. oxycodone infusion […] for 7 days,~50 % MPE
